Results: patent US4146718A, “Alkyl 5,6-dichloro-3,4-dihydro-2(1H)-iminoquinazoline-3-acetate hydrohalides” (Bristol-Myers Company, priority 1978, dated 1979)
≈ marks a conversion by molar mass, not a printed value. Where a name gives a salt, the structure may show the parent alone. Read-outs that look alike come from different tables or passages of the source.

What was measured:
[1] = system: Rabbit - PRP (ADP- and collagen-induced platelet aggregation); assay: Aggregometry - Rabbit - PRP, In Vitro; assay type: cell-based; settings: Oryctolagus cuniculus
Excerpt: (§1) As stated above, the compound of Formula I is a known blood platelet antiaggregative agent. Table I compares the activities of the compound of Formula I and other known blood platelet antiaggregative agents in various antiaggregative and antithrombosis tests. Although the compounds of Formula III are primarily intended as intermediates in the preparation of the compound of Formula I, they themselves have blood platelet antiaggregative properties. For comparison purposes, one of the compounds of Formula III (R^1 = ethyl, X = bromo) is included in Table I. The tests referred to in Table I were conducted as set out in detail in J. S. Fleming, et al., Journal of Pharmacology and Experimental Therapeutics, 194, 435 (1975).
(§2) Antiaggregative and Antithrombosis Tests in Various In Vitro, Ex Vivo
(§3) Aggregometry - Rabbit - PRP
(§4) (μg/ml) (mg/kp ip) Biolaser
(§5) PRP = Platelet-rich plasma
(§6) ADP = Adenosine diphosphate

[2] = system: Rabbit - PRP (ADP- and collagen-induced platelet aggregation); assay: Aggregometry - Rabbit - PRP, Ex Vivo; assay type: in vivo; settings: Oryctolagus cuniculus, ip
Excerpt: as §1, §2, §3, §4, §5, §6

Biolaser Thrombosis = assay: In Vivo Animal Model: Rabbit Biolaser Thrombosis; settings: Oryctolagus cuniculus, read-out: ED50, Rabbit Biolaser Thrombosis
Electrical Thrombosis = assay: In Vivo Animal Model: Dog Electrical Thrombosis; settings: Canis lupus familiaris, read-out: ED50, Dog Electrical Thrombosis
Endotoxin Shock = assay: In Vivo Animal Model: Rat Endotoxin Shock; settings: po
Excerpt: as §1
In Vivo Animal Models ED50's (mg/kg)

[3] = ADP, read-out: In Vitro EC50, ADP
[4] = Collagen, read-out: In Vitro EC50, Collagen
[5] = ADP, read-out: Ex Vivo ED50, ADP
[6] = Collagen, read-out: Ex Vivo ED50, Collagen

SMILES | EC50 [1, 3] [µg/mL] | EC50 [1, 4] [µg/mL] | ED50 [2, 5] [mg/kg] | ED50 [2, 6] [mg/kg] | ED50 (Biolaser Thrombosis; iv) [mg/kg] | ED50 (Electrical Thrombosis; po) [mg/kg] | ED50 (Endotoxin Shock) [mg/kg] | ED50 (Biolaser Thrombosis; rabbit, po) [mg/kg] | ED50 (Electrical Thrombosis; dog, po) [mg/kg] | ED50 (Biolaser Thrombosis; rabbit, iv) [mg/kg] | ED50 (Electrical Thrombosis; dog, ip) [mg/kg]
CC(=O)Oc1ccccc1C(=O)O [Aspirin] | > 512 | 7 (≈ 38.9 µM) | > 100 | 3 | > 60 | 50 | > 256 |  |  |  | 
O=C1CN2Cc3c(ccc(Cl)c3Cl)N=C2N1 [Compound I, 6,7-dichloro-1,5-dihydroimidazo[2,1-b]quinazolin-2(3H)-one] | 0.3 (≈ 1.17 µM) | 0.08 (≈ 0.312 µM) | 1.25 | 1 |  |  | 25 | 2.5 | 1.5 |  | 
CCOC(=O)CN1Cc2c(ccc(Cl)c2Cl)NC1=N [Compound III, Ethyl 5,6-Dichloro-3,4-dihydro-2(1H)-iminoquinazoline-3-acetate Hydrobromide] | 9 | 3.6 |  |  |  |  |  |  |  |  | 
OCCN(CCO)c1nc(N2CCCCC2)c2nc(N(CCO)CCO)nc(N3CCCCC3)c2n1 [Dipyridamole] | > 512 |  | > 100 | > 100 |  |  | > 256 |  |  | > 60 | > 35
O=C1C(CC[S+]([O-])c2ccccc2)C(=O)N(c2ccccc2)N1c1ccccc1 (centres unmarked) [Sulfinpyrazone] | > 512 | 62 (≈ 153 µM) | > 100 | 3 |  |  | > 128 |  | > 100 | > 60 | 
